In patent US11000033B2, “Ketone or oxime compound, and herbicide” (NISSAN CHEMICAL CORPORATION, priority 2014, dated 2021):

What was measured:
Type in all cases: in vivo
[1] = tested on: transplanted rice plant; assay: Test Example 1: effect on crop, application before weed generation in submerged conditions (symbol a); details: application herbicide amount 320 g/ha
Method in brief: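 Alluvial soil pots flooded to 4 cm water, sown with Echinochloa oryzacola, Scirpus juncoides and Monochoria vaginalis, then transplanted with 2.5 leaf stage rice seedlings; pre-emergence application. Greenhouse 25° C. to 30° C.; scored 0–5 by herbicidal ratio 3 weeks after application.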

[2] = tested on: Echinochloa crus-galli var. crus-galli; assay: Test Example 3: herbicidal effect by foliage application, Wagner pot (symbol H); details: application herbicide amount 320 g/ha
Method in brief: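 Foliar spray of a water-diluted emulsion at a predetermined herbicide amount, applied to 14-day-old plants. Seedlings were raised in flooded alluvial soil (0.1–0.5 cm water) at 25–30 °C in a greenhouse. Injury was rated after 3 weeks against fixed criteria.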

[3] = tested on: Alopecurus myosuroides; assay: Test Example 4: herbicidal effect by soil treatment (symbol J); details: application herbicide amount 320 g/ha
Method in brief: (§1)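 Seeds were sown in sterilized diluvial soil, covered with about 1.5 cm of soil, and the soil surface was sprayed with a water-diluted emulsion of the compound at a predetermined rate. Plants grew in a greenhouse at 25° C. to 30° C.; effects were scored visually 3 weeks after application.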

[4] = tested on: Abutilon theophrasti; assay: Test Example 4: herbicidal effect by soil treatment (symbol M); details: application herbicide amount 320 g/ha
Method in brief: as §1

[5] = tested on: Chenopodium album; assay: Test Example 4: herbicidal effect by soil treatment (symbol O); details: application herbicide amount 320 g/ha
Method in brief: as §1

[6] = tested on: Stellaria media; assay: Test Example 4: herbicidal effect by soil treatment (symbol P); details: application herbicide amount 320 g/ha
Method in brief: as §1

[7] = tested on: Galium spurium; assay: Test Example 4: herbicidal effect by soil treatment (symbol Q); details: application herbicide amount 320 g/ha
Method in brief: as §1

[8] = tested on: corn; assay: Test Example 4: effect on crop by soil treatment (symbol c); details: application herbicide amount 320 g/ha
Method in brief: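 The test used sterilized diluvial soil. Seed was set down in spots and overlaid with about 1.5 cm of soil before growth in a greenhouse kept at 25° C. to 30° C.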

[9] = tested on: Echinochloa crus-galli var. crus-galli; assay: Test Example 5: herbicidal effect by foliage application, plastic box (symbol H); details: 320 g/ha, 3 weeks after application
Method in brief: (§2)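 Sowing in sterilized diluvial soil, 14 days' greenhouse growth at 25° C. to 30° C., then uniform small-sprayer foliar application of aqueous emulsion dilution; plants scored three weeks afterwards.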

[10] = tested on: Alopecurus myosuroides; assay: Test Example 5: herbicidal effect by foliage application, plastic box (symbol J); details: 320 g/ha, 3 weeks after application
Method in brief: as §2

[11] = tested on: Lolium multiflorum Lam.; assay: Test Example 5: herbicidal effect by foliage application, plastic box (symbol K); details: 320 g/ha, 3 weeks after application
Method in brief: as §2

[12] = tested on: Apera spica-venti; assay: Test Example 5: herbicidal effect by foliage application, plastic box (symbol L); details: 320 g/ha, 3 weeks after application
Method in brief: as §2

[13] = tested on: Amaranthus retroflexus; assay: Test Example 5: herbicidal effect by foliage application, plastic box (symbol N); details: 320 g/ha, 3 weeks after application
Method in brief: as §2

[14] = tested on: Chenopodium album; assay: Test Example 5: herbicidal effect by foliage application, plastic box (symbol O); details: 320 g/ha, 3 weeks after application
Method in brief: as §2

[15] = tested on: Veronica persica; assay: Test Example 5: herbicidal effect by foliage application, plastic box (symbol R); details: 320 g/ha, 3 weeks after application
Method in brief: as §2

[16] = tested on: corn; assay: Test Example 5: effect on crop by foliage application, plastic box (symbol c); details: 320 g/ha, 3 weeks after application
Method in brief: (§3)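 Greenhouse test at 25° C. to 30° C. Seeds of crops and weeds were spot-sown in boxes of sterilized diluvial soil under roughly 1.5 cm soil cover, then grown for foliage treatment.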

[17] = tested on: soybean; assay: Test Example 5: effect on crop by foliage application, plastic box (symbol d); details: 320 g/ha, 3 weeks after application
Method in brief: as §3

Row | Structure (SMILES) | Effect grade on crop, a: transplanted rice plant [1] | herbicidal effect on H (Echinochloa crus-galli var. crus-galli), grade 0-5 [2] | J: Alopecurus myosuroides, herbicidal effect grade [3] | M: Abutilon theophrasti, herbicidal effect grade [4] | O: Chenopodium album, herbicidal effect grade [5] | P: Stellaria media, herbicidal effect grade [6] | Q: Galium spurium, herbicidal effect grade [7] | c: corn, effect on crop grade [8] | H: Echinochloa crus-galli var. crus-galli, herbicidal effect (criteria of Test Example 1) [9] | J: Alopecurus myosuroides, herbicidal effect (criteria of Test Example 1) [10] | K: Lolium multiflorum Lam., herbicidal effect (criteria of Test Example 1) [11] | L: Apera spica-venti, herbicidal effect (criteria of Test Example 1) [12] | N: Amaranthus retroflexus, herbicidal effect (criteria of Test Example 1) [13] | O: Chenopodium album, herbicidal effect (criteria of Test Example 1) [14] | R: Veronica persica, herbicidal effect (criteria of Test Example 1) [15] | c: corn, effect on crop (criteria of Test Example 1) [16] | d: soybean, effect on crop (criteria of Test Example 1) [17] | H: Echinochloa crus-galli var. crus-galli, herbicidal effect grade [9] | J: Alopecurus myosuroides, herbicidal effect grade [10] | K: Lolium multiflorum Lam., herbicidal effect grade [11] | other results
1 | CON=C(C)CC1CC(OS(=O)(=O)N(C)C)=C(c2c(C)cc(-c3ccc(F)cc3)cc2C)C1=O (mixture of isomers) [6-060] | 5 (Herbicidal ratio of 90% or more (almost completely withered)) | 5 (Herbicidal ratio of 90% or more (almost completely withered)) | 3 (Herbicidal ratio of 40% or higher and lower than 70%) | 0 (Herbicidal ratio of 5% or lower (almost no effect)) | 0 (Herbicidal ratio of 5% or lower (almost no effect)) | 0 (Herbicidal ratio of 5% or lower (almost no effect)) | 0 (Herbicidal ratio of 5% or lower (almost no effect)) | 0 (Herbicidal ratio of 5% or lower (almost no effect)) | 5 (Herbicidal ratio of 90% or more (almost completely withered)) | 5 (Herbicidal ratio of 90% or more (almost completely withered)) | 5 (Herbicidal ratio of 90% or more (almost completely withered)) | 5 (Herbicidal ratio of 90% or more (almost completely withered)) | 4 (Herbicidal ratio of 70% or higher and lower than 90%) | 4 (Herbicidal ratio of 70% or higher and lower than 90%) | 4 (Herbicidal ratio of 70% or higher and lower than 90%) | 5 (Herbicidal ratio of 90% or more (almost completely withered)) | 1 (Herbicidal ratio of 5% or higher and lower than 20%) |  |  |  | 
2 | COC(=O)CON=C(C)CC1CC(O)=C(c2c(C)cc(C)cc2C)C1=O (stereo not shown) [1-023] | 1 (Herbicidal ratio of 5% or higher and lower than 20%) | 5 (Herbicidal ratio of 90% or more (almost completely withered)) |  |  |  |  |  |  |  |  |  |  |  |  |  |  |  | 4 (Herbicidal ratio of 70% or higher and lower than 90%) | 4 (Herbicidal ratio of 70% or higher and lower than 90%) | 4 (Herbicidal ratio of 70% or higher and lower than 90%) | J (Alopecurus myosuroides) herbicidal effect grade [3]: 0 (Herbicidal ratio of 5% or lower (almost no effect)); M (Abutilon theophrasti) herbicidal effect grade [4]: 0 (Herbicidal ratio of 5% or lower (almost no effect)); O (Chenopodium album) herbicidal effect grade [5]: 0 (Herbicidal ratio of 5% or lower (almost no effect)); P (Stellaria media) herbicidal effect grade [6]: 0 (Herbicidal ratio of 5% or lower (almost no effect)); Q (Galium spurium) herbicidal effect grade [7]: 0 (Herbicidal ratio of 5% or lower (almost no effect)); c (corn) effect on crop grade [8]: 0 (Herbicidal ratio of 5% or lower (almost no effect)); L: Apera spica-venti, herbicidal effect grade [12]: 4 (Herbicidal ratio of 70% or higher and lower than 90%); N: Amaranthus retroflexus, herbicidal effect grade [13]: 0 (Herbicidal ratio of 5% or lower (almost no effect)); O: Chenopodium album, herbicidal effect grade [14]: 0 (Herbicidal ratio of 5% or lower (almost no effect)); R: Veronica persica, herbicidal effect grade [15]: 0 (Herbicidal ratio of 5% or lower (almost no effect)); c: corn, effect on crop grade [16]: 1 (Herbicidal ratio of 5% or higher and lower than 20%); d: soybean, effect on crop grade [17]: 0 (Herbicidal ratio of 5% or lower (almost no effect))
3 | CON=C(C)CC1CC(O)=C(c2c(C)cc(Oc3ccccc3)cc2C)C1=O (stereo not shown) [6-052] | 3 (Herbicidal ratio of 40% or higher and lower than 70%) | 5 (Herbicidal ratio of 90% or more (almost completely withered)) | 0 (Herbicidal ratio of 5% or lower (almost no effect)) | 0 (Herbicidal ratio of 5% or lower (almost no effect)) | 0 (Herbicidal ratio of 5% or lower (almost no effect)) | 2 (Herbicidal ratio of 20% or higher and lower than 40%) | 0 (Herbicidal ratio of 5% or lower (almost no effect)) | 0 (Herbicidal ratio of 5% or lower (almost no effect)) |  |  |  |  |  |  |  |  |  | 5 (Herbicidal ratio of 90% or more (almost completely withered)) | 4 (Herbicidal ratio of 70% or higher and lower than 90%) | 5 (Herbicidal ratio of 90% or more (almost completely withered)) | L: Apera spica-venti, herbicidal effect grade [12]: 4 (Herbicidal ratio of 70% or higher and lower than 90%); N: Amaranthus retroflexus, herbicidal effect grade [13]: 0 (Herbicidal ratio of 5% or lower (almost no effect)); O: Chenopodium album, herbicidal effect grade [14]: 0 (Herbicidal ratio of 5% or lower (almost no effect)); R: Veronica persica, herbicidal effect grade [15]: 0 (Herbicidal ratio of 5% or lower (almost no effect)); c: corn, effect on crop grade [16]: 3 (Herbicidal ratio of 40% or higher and lower than 70%); d: soybean, effect on crop grade [17]: 0 (Herbicidal ratio of 5% or lower (almost no effect))
4 | CON=C(C)CC1CC(O)=C(c2c(C)cc(OC)cc2C)C1=O (stereo not shown) [6-055] | 5 (Herbicidal ratio of 90% or more (almost completely withered)) | 5 (Herbicidal ratio of 90% or more (almost completely withered)) | 4 (Herbicidal ratio of 70% or higher and lower than 90%) | 3 (Herbicidal ratio of 40% or higher and lower than 70%) | 0 (Herbicidal ratio of 5% or lower (almost no effect)) | 0 (Herbicidal ratio of 5% or lower (almost no effect)) | 0 (Herbicidal ratio of 5% or lower (almost no effect)) | 5 (Herbicidal ratio of 90% or more (almost completely withered)) | 5 (Herbicidal ratio of 90% or more (almost completely withered)) | 5 (Herbicidal ratio of 90% or more (almost completely withered)) | 5 (Herbicidal ratio of 90% or more (almost completely withered)) | 5 (Herbicidal ratio of 90% or more (almost completely withered)) | 0 (Herbicidal ratio of 5% or lower (almost no effect)) | 3 (Herbicidal ratio of 40% or higher and lower than 70%) | 4 (Herbicidal ratio of 70% or higher and lower than 90%) | 5 (Herbicidal ratio of 90% or more (almost completely withered)) | 3 (Herbicidal ratio of 40% or higher and lower than 70%) |  |  |  | 
5 | CON=C(C)CC1CC(O)=C(c2c(C)cc(C(C)=NOC)cc2C)C1=O (stereo not shown) [6-065] | 4 (Herbicidal ratio of 70% or higher and lower than 90%) | 5 (Herbicidal ratio of 90% or more (almost completely withered)) | 5 (Herbicidal ratio of 90% or more (almost completely withered)) | 0 (Herbicidal ratio of 5% or lower (almost no effect)) | 3 (Herbicidal ratio of 40% or higher and lower than 70%) | 4 (Herbicidal ratio of 70% or higher and lower than 90%) | 4 (Herbicidal ratio of 70% or higher and lower than 90%) | 5 (Herbicidal ratio of 90% or more (almost completely withered)) | 5 (Herbicidal ratio of 90% or more (almost completely withered)) | 5 (Herbicidal ratio of 90% or more (almost completely withered)) | 5 (Herbicidal ratio of 90% or more (almost completely withered)) | 5 (Herbicidal ratio of 90% or more (almost completely withered)) | 0 (Herbicidal ratio of 5% or lower (almost no effect)) | 1 (Herbicidal ratio of 5% or higher and lower than 20%) | 3 (Herbicidal ratio of 40% or higher and lower than 70%) | 5 (Herbicidal ratio of 90% or more (almost completely withered)) | 1 (Herbicidal ratio of 5% or higher and lower than 20%) |  |  |  | 
